Entries after “also recorded” stand apart in the source; their conditions may differ. Bridge positions count the residues as written; N and C are the ends. Square brackets hold non-standard residues; d marks the D form. Peptide text beside a SMILES is read from it. * marks the point of attachment. Ileψ(thiazoline)Cys = CC[C@H](C)[C@H](N)C1=N[C@H](C(=O)*)CS1; dOrn = NCCC[C@@H](N)C(=O)O

Assay [1] relates to S. aureus. Description: Mouse skin infection model: S. aureus infection in abraded mouse skin. It counts as in vivo. As to conditions: for efficacy compared with independent administration of nisin: PEG ointment or G&W petrolatum base bacitracin formulation, FIG. 2; for additive or synergistic effect when combined with nisin: skin infection, combined with nisin (See Example 1). The protocol:
(§1) Mouse Skin Infection Model: An overnight culture of S. aureus grown in tryptic soy broth (SA8; range from 1 to 6×10^9 CFUs/mL) was centrifuged at 4000×g for 10 minutes and resuspended in an equal volume of phosphate buffered saline (PBS). The bacteria were diluted to a percent transmittance of 40 (Spectronic 20D+) and diluted a subsequent 1:1000 in PBS for a final bacteria concentration of about 3×10^5. SKH1 (hrhr) hairless mice (Charles River) were sedated with 0.2 mL of ketamine (80 mg/kg) and xylazine (32 mg/kg) delivered intraperitoneally. The upper back of the mice were scrubbed with a 70% alcohol wipe and allowed to dry. Fine abrasions were made on the backs' of the mice between the shoulders using 150 grit sandpaper. Bacteria were swabbed over the abraded area with a sterile, cotton-tipped applicator until the area was saturated with the solution.
Topical Ointment: 74 g of PEG 400 and 24 g of PEG 3350 were added to a 250 mL glass beaker and heated until all of the PEG 3350 was melted. The solution was stirred well and allowed to cool to room temperature, which results in a smooth, opaque ointment. Powdered nisin and bacitracin were added to the ointment on a w/w basis and stirred until homogenously mixed. For formulations containing mupirocin, 1 g of Bactroban Ointment was weighed into a container and powdered nisin added to 2% or 6% (w/w) and mixed well. Lysostaphin was first dissolve to a concentration of about 150 mg/mL in DI water before mixing into the ointment to give a final concentration of 2% (w/w).
Treatment of Infected Skin with Topical Ointment: Treatments aimed to eradicate S. aureus skin infections in the mouse model were started on the morning after infection (Day 1). About 0.1 g of the topical ointments containing nisin (0, 2, or 6% w/w), mupirocin (0 or 2%), bacitracin (0 or 500U), and lysostaphin (0 or 2% w/w) were swabbed over the infected area 3 times a day on Days 1 and 2 using a sterile, polyester-tipped applicator. The mice were sacrificed by CO2 asphyxiation on the morning of Day 3 and a 0.5-cm^2 patch of skin around the infected area was excise. The skin sample was dissected and placed into a test tube containing 1 mL of 5 mg/mL proteinase K, 20 mg/mL esterase, and 20 mg/mL activated charcoal in PBS to neutralize the activity of the antibacterial agents. Bacteria were dislodged from the skin sample by sonication: 2 minute treatments per sample with alternating 5 seconds at 3 W and 5 seconds at 0 W in a Virsonic 600 with microtip (VirTis). After mixing by vortex, 50 μL of each sample was streaked onto blood agar plates, incubated at 37° C. overnight, and the colonies were counted and compared to untreated controls.
For the following data, except where noted in FIG. 2, all antibiotic formulations were in a common polyethylene glycol (PEG) ointment (PEG 400 plus PEG 3350).

The subject of assay [2] is S. aureus strain resistant to mupirocin. The experiment in a line: Mupirocin-resistant S. aureus infection in abraded mouse skin. It counts as in vivo. Particulars: FIG. 3. How it is done:
as §1
Topical Ointment: 74 g of PEG 400 and 24 g of PEG 3350 were added to a 250 mL glass beaker and heated until all of the PEG 3350 was melted. […]
Treatment of Infected Skin with Topical Ointment: Treatments aimed to eradicate S. aureus skin infections in the mouse model were started on the morning after infection (Day 1). […] After mixing by vortex, 50 μL of each sample was streaked onto blood agar plates, incubated at 37° C. overnight, and the colonies were counted and compared to untreated controls. […]

Assay [3] has as its system P. aeruginosa. Description: P. aeruginosa infection in abraded mouse skin. As to conditions: FIG. 4. The class given is in vivo.
In assay [4] the test system is Staphylococcus aureus ATCC #6538. Description: Inoculated partial thickness wounds in pig. The class given is in vivo. As to conditions: treated twice per day, mean ± SD. How it is done:
Experimental animals. A young female specific pathogen free (SPF: Looper Farms, North Carolina) pig weighing 25-30 kg was kept in house for two weeks prior to initiating the experiment. The animal was fed a basal diet ad libitum and housed individually in animal facilities (meeting American Association for Accreditation of Laboratory Animal) with controlled temperature (19-21° C.) and lights (12 h/12 h LD). The experimental animal protocols used for this study followed the federal guidelines for the care and use of laboratory animals (U.S. Department of Health and Human Services, U.S. Department of Agriculture). Animals were monitored daily for any observable signs of pain or discomfort. […] A small amount of the inoculum suspension was plated onto culture media to quantitate the exact concentration of viable organisms prior to the experiment. […] At each sampling time, sites were cultured quantitatively. […] Serial dilutions were made and scrub solutions were quantitated using the Spiral Plater System that deposits a small defined amount (50 μl) of suspension over the surface of a rotating agar plate. […]

The subject of assay [5] is S. aureus. Description: In vitro MIC of nisin alone or in combination (log reduction of viable S. aureus). It counts as cell-based. Particulars: FIG. 11. The protocol: In order to determine if nisin could function in a synergistic way with other antimicrobials to treat (e.g., kill and/or inhibit growth of) bacteria in vitro, the minimum inhibitory concentration (MIC) of nisin alone or nisin in combination with either mupirocin, neomycin or gentamicin were tested. The MIC was determined by calculating the log reduction of viable S. aureus following incubation with the amounts of nisin and other antimicrobials as indicated in FIG. 11.

Assay [6] has as its system S. aureus. The experiment in a line: Suture skin infection (deep tissue infection) mouse model. It counts as in vivo. Particulars: deep cut in mouse, S. aureus introduced into the incision; FIG. 13. The protocol: It was determined whether nisin and mupirocin, either alone or in combination with each other, would be able to treat S. aureus in a deep tissue infection model. A suture skin infection model was generated in which a deep cut (e.g., one needing sutures to close) was made in a mouse and S. aureus introduced into the incision. […] Thus, a combination of nisin and mupirocin can be used to treat a deep tissue infection as well as a […] infection.

For assay [7], the system named is P. aeruginosa. Particulars: previously shown; cited from earlier work.
Assay [8] concerns S. aureus. Description: Superficial skin abrasion / superficial wound skin infection model. The class given is in vivo. Particulars: for synergy with mupirocin in the skin infection model: used in combination with mupirocin; for synergy with nisin in the skin infection model: used in combination with nisin. The protocol: Mice provided a superficial skin abrasion and inoculated with S. aureus as described in Example 2 were treated with a composition comprising a combination of 6% nisin and 0.1% gentamicin.
In order to determine if nisin could function in a synergistic way with other antimicrobials to treat (e.g., kill and/or inhibit growth of) bacteria in a superficial wound model (See Example 2), nisin was used in combination with either neomycin or gallidermin and tested.
In order to determine if nisin or gallidermin could function in a synergistic way with other antimicrobials to treat (e.g., kill and/or inhibit growth of) bacteria in a superficial wound model (See Example 2), nisin or gallidermin were used in combination with either gentamicin and mupirocin, respectively, and tested. Nisin did synergize with gentamicin and gallidermin did synergize with mupirocin to reduce bacterial counts in the skin infection model.
In order to determine if mupirocin could function in a synergistic way with bacitracin to treat (e.g., kill and/or inhibit growth of) bacteria in a superficial wound model (See Example 2), mupirocin was used in combination with bacitracin and tested for the ability to treat bacteria.

On to `C/C(=C\C(=O)OCCCCCCCCC(=O)O)C[C@@H]1OC[C@H](C[C@@H]2O[C@H]2[C@@H](C)[C@H](C)O)[C@@H](O)[C@H]1O` [Mupirocin, mupirocin], for which the “decrease in infectious CFUs” value in the assay on S. aureus [1] (abraded mouse skin, drug alone in PEG ointment, 3 times a day on Days 1 and 2, skin sampled Day 3, vs untreated controls, FIG. 1) was 3 logs. Further, in the assay on S. aureus [1] (abraded mouse skin, topical ointment 3 times a day on Days 1 and 2, FIG. 1), the “animals cleared of infection” value was “Neither drug alone was able to completely clear the infection”. For the same compound, in assay [2], the “activity against mupirocin-resistant S. aureus strain” value is on record as “minimal activity”. For the same compound, the “additional activity added to the nisin formulation” value in the assay with P. aeruginosa [3] is “does not add any additional activity”. The “Av. Count (S. aureus recovered from wounds)” value in assay [4] (Day 7 post treatment) is on record as 1.63 ± 1.42 Log cfu/ml; in assay [4] (two days after initial treatment) it was 4.96 ± 0.8 Log CFU/ml. The “ability to synergize in vitro with nisin” value in the assay on S. aureus [5] is “none of the antimicrobials tested (i.e., mupirocin, neomycin, and gentamicin) displayed the ability to synergize in vitro with nisin”. In addition, the “efficacy in treating S. aureus in suture infection model” value in the assay on S. aureus [6] is recorded as “very little efficacy”. The “activity against P. aeruginosa” value in the assay on P. aeruginosa [7] is listed as “poor activity”.

In the case of `CC[C@H](C)[C@H](N)C1=N[C@H](C(=O)N[C@@H](CC(C)C)C(=O)N[C@H](CCC(=O)O)C(=O)N[C@H](C(=O)N[C@H]2CCCCNC(=O)[C@H](CC(N)=O)NC(=O)[C@@H](CC(=O)O)NC(=O)[C@H](Cc3cnc[nH]3)NC(=O)[C@@H](Cc3ccccc3)NC(=O)[C@H]([C@@H](C)CC)NC(=O)[C@@H](CCCN)NC2=O)[C@@H](C)CC)CS1` [bacitracin] ({Ileψ(thiazoline)Cys}-L[dE]IK[dOrn]I[dF]H[dD]N; lactam 4-C), in the assay on S. aureus [1], the “efficacy compared with independent administration of nisin” value is listed as “None of these antibacterial agents administered independently, or administered in a composition comprising nisin, were significantly more efficacious than the independent administration of nisin” and the “additive or synergistic effect when combined with nisin” value is “no additive or synergistic effect was observed”. In addition, the “synergy with mupirocin in the skin infection model” value in the assay on S. aureus [8] was “did not synergize with bacitracin, nor was there an additive benefit; also recorded: does not synergize with or provide additive benefit together with bacitracin”.

As to gallidermin, in the assay with S. aureus [8], the “synergy with mupirocin in the skin infection model” value is on record as “did synergize” and the “synergy with nisin in the skin infection model” value (“synergy with nisin” below) is recorded as “did not synergize”.

As for gentamicin, the “synergy with nisin” value in the assay with S. aureus [8] is “did synergize”. Further, the “ability to synergize in vitro with nisin” value with S. aureus [5] was “none of the antimicrobials tested (i.e., mupirocin, neomycin, and gentamicin) displayed the ability to synergize in vitro with nisin”.

For the compound lysostaphin, in the assay on S. aureus [1], the “efficacy compared with independent administration of nisin” value is “None of these antibacterial agents administered independently, or administered in a composition comprising nisin, were significantly more efficacious than the independent administration of nisin” and the “additive or synergistic effect when combined with nisin” value is recorded as “no additive or synergistic effect was observed”.

As to neomycin, the “synergy with nisin” value with S. aureus [8] is on record as “did not synergize”. Moreover, in the assay on S. aureus [5], the “ability to synergize in vitro with nisin” value is “none of the antimicrobials tested (i.e., mupirocin, neomycin, and gentamicin) displayed the ability to synergize in vitro with nisin”.

The record behind these values is patent US7576054B2, “Compositions and methods for treating bacteria” (Biosynexus Incorporated, priority 2005, dated 2009).
